# Target: T1, Angiotensin II receptor (AT-1) type-1 (Rattus norvegicus, UniProt P29089+P25095)
# T1 sequence (P29089 whole entry): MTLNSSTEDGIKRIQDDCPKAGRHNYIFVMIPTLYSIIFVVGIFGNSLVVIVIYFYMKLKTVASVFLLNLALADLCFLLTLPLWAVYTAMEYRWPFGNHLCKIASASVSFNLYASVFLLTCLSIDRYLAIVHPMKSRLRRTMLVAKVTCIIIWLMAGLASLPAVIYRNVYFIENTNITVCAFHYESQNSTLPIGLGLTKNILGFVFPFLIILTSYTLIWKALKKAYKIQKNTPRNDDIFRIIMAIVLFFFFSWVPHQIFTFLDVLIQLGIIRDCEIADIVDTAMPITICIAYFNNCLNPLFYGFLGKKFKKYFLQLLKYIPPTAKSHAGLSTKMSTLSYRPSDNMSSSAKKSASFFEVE
# T1 sequence (P25095 whole entry): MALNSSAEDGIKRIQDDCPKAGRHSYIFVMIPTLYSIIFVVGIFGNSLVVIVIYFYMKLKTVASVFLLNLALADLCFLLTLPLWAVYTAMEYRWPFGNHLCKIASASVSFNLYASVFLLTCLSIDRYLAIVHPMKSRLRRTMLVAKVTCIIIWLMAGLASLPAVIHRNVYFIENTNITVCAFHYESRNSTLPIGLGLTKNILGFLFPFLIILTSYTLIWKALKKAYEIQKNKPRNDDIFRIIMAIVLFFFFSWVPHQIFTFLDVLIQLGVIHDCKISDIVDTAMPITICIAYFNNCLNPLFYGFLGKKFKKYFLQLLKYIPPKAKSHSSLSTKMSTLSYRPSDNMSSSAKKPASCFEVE
# Assay: Antagonistic activity against Angiotensin II receptor type 1 in rat uterus
# Format: functional, tissue-based
row,SMILES,pA2
1,CC[C@H](C)[C@H](NC(=O)[C@H](Cc1ccc(OC)cc1)NC(=O)[C@@H](NC(=O)[C@H](CCCN=C(N)N)NC(=O)[C@@H](N)CC(=O)O)C(C)C)C(=O)N[C@@H](Cc1c[nH]cn1)C(=O)N1CCC[C@H]1C(=O)N[C@@H](CCO)C(=O)O,5.4
2,CC[C@H](C)[C@H](NC(=O)[C@H](Cc1ccc(OC)cc1)NC(=O)[C@@H](NC(=O)[C@@H](N)CCCN=C(N)N)C(C)C)C(=O)N[C@@H](Cc1c[nH]cn1)C(=O)N1CCC[C@H]1C(=O)N[C@@H](CCO)C(=O)O,< 4.8
3,CC[C@H](C)[C@H](NC(=O)[C@H](Cc1ccc(O)cc1)NC(=O)[C@@H](NC(=O)[C@H](CCCN=C(N)N)NC(=O)[C@@H](N)CC(=O)O)C(C)C)C(=O)N[C@@H](Cc1c[nH]cn1)C(=O)N1CCC[C@H]1C(=O)N[C@@H](CCO)C(=O)O,6.7
4,CC[C@H](C)[C@H](NC(=O)[C@H](Cc1ccc(O)cc1)NC(=O)[C@@H](NC(=O)[C@@H](N)CCCN=C(N)N)C(C)C)C(=O)N[C@@H](Cc1c[nH]cn1)C(=O)N1CCC[C@H]1C(=O)N[C@@H](CCO)C(=O)O,< 4.8

# Results, then the compound that gave them:
row,pA2,SMILES
1,7.5,CC[C@H](C)[C@H](NC(=O)[C@H](Cc1ccc(OC)cc1)NC(=O)[C@@H](NC(=O)[C@H](CCCN=C(N)N)NC(=O)CNC)C(C)C)C(=O)N[C@@H](Cc1c[nH]cn1)C(=O)N1CCC[C@H]1C(=O)N[C@@H](Cc1ccccc1)C(=O)O
2,6.6,CC[C@H](C)[C@H](NC(=O)[C@@H]1CCCN1C(=O)[C@H](Cc1c[nH]cn1)NC(=O)[C@@H](NC(=O)[C@H](Cc1ccc(OC)cc1)NC(=O)[C@@H](NC(=O)[C@H](CCCN=C(N)N)NC(=O)CNC)C(C)C)[C@@H](C)CC)C(=O)O
3,7.8,CC[C@H](C)[C@H](NC(=O)[C@H](Cc1ccc(O)cc1)NC(=O)[C@@H](NC(=O)[C@H](CCCN=C(N)N)NC(=O)CNC)C(C)C)C(=O)N[C@@H](Cc1c[nH]cn1)C(=O)N1CCC[C@H]1C(=O)N[C@@H](CCO)C(=O)O
4,5.7,CC[C@H](C)[C@H](NC(=O)[C@H](Cc1ccc(OC)cc1)NC(=O)[C@@H](NC(=O)[C@H](CCCN=C(N)N)NC(=O)CNC)C(C)C)C(=O)N[C@@H](Cc1c[nH]cn1)C(=O)N1CCC[C@H]1C(=O)N[C@@H](CCO)C(=O)O
